Measurements reported in patent publication US12187722B2, “Small molecule inhibitors of TEAD transcription factors” (The General Hospital Corporation, priority 2019, dated 2025).
“And” between values parts separate entries of the source, which are not always exact repeats. Equal values may be shown once. Read-outs that look alike come from different tables or passages of the source.

Tests used:
[1] = biological target: T1, TEAD2 (Homo sapiens (Human), UniProt Q15562); assay: In vitro palmitoylation (TEAD2 autopalmitoylation, streptavidin blot); format: biochemical; settings: compound at 10 μM
Outline: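 Recombinant GST- or His6-TEAD2 (500 ng) preincubated 15 min with compound, then 30 min with 1 μM alkyne palmitoyl-CoA; click-labelled with biotin-azide (1 h, RT). Streptavidin-HRP blot band intensity quantified after SDS-PAGE; inhibition of autopalmitoylation relative to DMSO control.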

[2] = biological target: T1, TEAD2; assay: CMP assay (CPM fluorescence detection of free CoA); format: biochemical
Procedure: 7-Diethylamino-3-(4′-Maleimidylphenyl)-4-Methylcoumarin (CPM), which reacts with thiol of CoA liberated in the enzymatic reaction, and gives fluorescent signal (excitation ˜350-380, emission-460-480). The assay detects the product (free CoA) which is produced from palmitoyl-CoA as a method to detect the enzymatic activity. Test compounds that inhibit TEAD activity are therefore able to block the CMP fluorescent signal.
TEAD2/4 protein (10 μL of a 50 ng/μL solution) and a solution the test compound (0.5 μL, variable concentration) were pre-incubated for 30 min at r.t. A mixture prepared from MES pH 6.4 buffer (6.5 μL of a 50 mM solution), EDTA (1 μL of a 20 mM solution), palmitoyl-CoA (1 μL of a 20 μM solution), and 7-diethylamino-3-(4′-maleimidylphenyl)-4-methylcoumarin (1 μL of a 10 μM solution) was added and the resulting mixture was mixed well using a pipette. The solution was then incubated at r.t. for 30-120 min. in the dark, and fluorescence was detected at […] every 30 min. until the fluorescence signal is saturated. An IC50 for the ability of the compound to inhibit fluorescence is calculated from the results.

[3] = Table 3, unit inferred, read-out: TEAD2 palmitoylation IC50
[4] = Table 2, read-out: IC50 μM (CMP assay)

T1 sequence (Q15562 whole entry): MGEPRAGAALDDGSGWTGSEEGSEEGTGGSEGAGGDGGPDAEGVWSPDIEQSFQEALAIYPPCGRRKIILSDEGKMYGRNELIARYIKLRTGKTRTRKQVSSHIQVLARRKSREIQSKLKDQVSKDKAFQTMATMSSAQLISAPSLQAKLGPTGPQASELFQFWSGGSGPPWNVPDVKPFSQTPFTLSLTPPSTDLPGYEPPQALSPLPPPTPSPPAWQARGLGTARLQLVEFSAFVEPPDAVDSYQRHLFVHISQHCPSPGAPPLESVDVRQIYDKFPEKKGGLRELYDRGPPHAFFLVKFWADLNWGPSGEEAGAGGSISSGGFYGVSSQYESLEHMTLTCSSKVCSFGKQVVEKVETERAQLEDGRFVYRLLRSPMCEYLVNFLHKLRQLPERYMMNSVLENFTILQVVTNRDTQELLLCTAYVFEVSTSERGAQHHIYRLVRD

inhibition at 10 µM ([1]; Table 3) [%]	inhibition at 10 µM ([1]; Table 2) [%]	Compound	also measured
99		O=C(O)c1ccccc1Nc1ccc(Oc2ccc(C3CCCCC3)cc2Cl)nc1 [CP-566]	IC50 [2, 3]: 0.38 µM
76		COc1ccc(Nc2ccc(N(C)c3ccc(S(F)(F)(F)(F)F)cc3)cc2)c(C(=O)O)c1 [CP-528]	IC50 [2, 3]: 0.38 µM
90		COc1ccc(Nc2ccc(N(C)c3ccc(C4CCCCC4)cc3)cc2C)c(C(=O)O)c1 [CP-560]	IC50 [2, 3]: 0.011 µM
91		COc1ccc(Nc2ccc(N(C)c3ccc(C45CC6CC(CC(C6)C4)C5)cc3)cc2C)c(C(=O)O)c1 [CP-551]	IC50 [2, 3]: 0.002 µM
85		COc1ccc(Nc2ccc(N(C)c3ccc(C4CCCCC4)cc3)cc2F)c(C(=O)O)c1 [CP-549]	IC50 [2, 3]: 2.4 µM
100		COc1ccc(Nc2ccc(N(C)c3ccc(OCC(F)(F)F)cc3)cc2)c(C(=O)O)c1 [CP-553]	IC50 [2, 3]: 0.59 µM
78		COc1ccc(Nc2ccc(N(C)c3ccc(C4CCC(C)(C)CC4)cc3)cc2)c(C(=O)O)c1 [CP-593]	IC50 [2, 3]: 0.03 µM
85		COc1ccc(Nc2ccc(N(C)c3ccc(C4CC5CCC4C5)cc3)cc2)c(C(=O)O)c1 (centres unmarked) [CP-538]	IC50 [2, 3]: 0.68 µM
86		COc1ccc(Nc2ccc(N(C)c3ccc(C4CC5CCC4C5)cc3)cc2F)c(C(=O)O)c1 (centres unmarked) [CP-585]	IC50 [2, 3]: 0.32 µM
86		COc1ccc(Nc2ccc(N(C)c3ccc(OC(F)(F)F)cc3)cc2)c(C(=O)O)c1 [CP-548]	IC50 [2, 3]: 0.45 µM
87		COc1ccc(Nc2ccc(N(C)c3ccc(C4CCCCC4)cc3)cc2C2CC2)c(C(=O)O)c1 [CP-626]	IC50 [2, 3]: 0.382 µM
96		COc1ccc(Nc2ccc(N(C)c3ccc(OC(F)(F)F)cc3)cc2C)c(C(=O)O)c1 [CP-590]	IC50 [2, 3]: 0.22 µM
96		Cc1cc(N(C)c2ccc(C3CCCCC3)cc2)ccc1Nc1ccc(OC2CC2)cc1C(=O)O [CP-619]	IC50 [2, 3]: 0.75 µM
73		COc1ccc(Nc2ccc(Oc3ccc(C45CC6CC(C)(CC(C)(C6)C4)C5)cc3Cl)cc2F)c(C(=O)O)c1 [CP-570]	IC50 [2, 3]: 0.65 µM
96		COc1ccc(Nc2ccc(N(C)c3ccc(C4CCCCC4)cc3)cc2)c(C(=O)O)c1 [CP-522]	IC50 [2, 3]: 1.53 µM
42		COc1ccc(Nc2ccc(N(C)c3ccc(C(F)(F)F)cn3)cc2)c(C(=O)O)c1 [CP-576]	
67		O=C(O)c1cccc(NC(=O)c2ccc(Nc3ccc(C4CCCCC4)cc3)cc2)c1 [CP-638]	
94		COc1ccc(Nc2ccc(N(C)c3ccc(SC(F)(F)F)cc3)cc2)c(C(=O)O)c1 [CP-622]	
61		Cc1cc(N(C)c2ccc(C3CCCCC3)cc2)ccc1Nc1ccc(C(F)(F)F)cc1C(=O)O [CP-579]	
24		CNC(=O)c1nc(Nc2ccc(N(C)c3ccc(C4CCCCC4)cc3)cc2C)ccc1S(=O)(=O)NC [CP-653]	
88		O=C(O)c1cccc(Nc2cc(Nc3ccc(C4CCCCC4)cc3)cc(C(F)(F)F)c2)c1 [CP-662]	
59		COc1ccc(Nc2ccc(F)cc2Oc2ccc(C34CC5CC(C)(CC(C)(C5)C3)C4)cc2Cl)c(C(=O)O)c1 [CP-569]	
96		O=C(Nc1ccc(C2CCCCC2)cc1Cl)c1cccc(Nc2ncccc2C(=O)O)c1 [CP-665]	

Continued, molecule first:

Compound	inhibition at 10 µM ([1]; Table 3) [%]	inhibition at 10 µM ([1]; Table 2) [%]	also measured
O=C(O)c1cccnc1Nc1cnn(Cc2ccc(C34CC5CC(CC(C5)C3)C4)cc2Cl)c1 [Compound 112]		100	IC50 [2, 4]: 0.268 µM
CN(c1ccc(Oc2ccc(C34CC5CC(CC(C5)C3)C4)cc2Cl)cc1)c1ccccc1C(=O)O [Compound 168]		97	IC50 [2, 4]: 0.173 µM
CN(c1ccc(N(C)c2ccccc2C(=O)O)cc1)c1ccc(C23CC4CC(C)(CC(C)(C4)C2)C3)cc1 [Compound 178]		100	IC50 [2, 4]: 0.227 µM
O=C(O)c1cccc(Nc2cc(Nc3ccc(C45CC6CC(CC(C6)C4)C5)cc3Cl)cc(C(F)(F)F)c2)n1 [Compound 119]		100	IC50 [2, 4]: 0.106 µM
CN(c1ccc(Nc2ccc(C34CC5CC(CC(C5)C3)C4)cc2Cl)cc1)c1ncccc1C(=O)O [Compound 125]		96	IC50 [2, 4]: 0.771 µM
CN(c1ccc(N(C)c2ncccc2C(=O)O)cc1)c1ccc(C23CC4CC(CC(C4)C2)C3)cc1 [Compound 139]		95	IC50 [2, 4]: 0.312 µM
CN(c1ccc(N(C)c2ccccc2C(=O)O)cc1)c1ccc(C23CC4CC(CC(C4)C2)C3)cc1 [Compound 100]		100	IC50 [2, 4]: 0.207 µM
CC12CC3CC(C)(C1)CC(c1ccc(Oc4ccc(Nc5ncccc5C(=O)O)cc4)c(Cl)c1)(C3)C2 [Compound 254]		100	IC50 [2, 4]: 0.297 µM
O=C(O)c1cccnc1Nc1ccc(Oc2ccc(C34CC5CC(CC(C5)C3)C4)cc2Cl)cc1 [Compound 252]		100	IC50 [2, 4]: 0.053 µM
C=CC(=O)c1ccccc1Nc1cccc(Nc2ccc(C34CC5CC(CC(C5)C3)C4)cc2)c1			inhibition at 10 µM [1]: 70%; IC50 ([2]; CMP assay, read-out: CMP IC50): 5.09 µM
COc1ccc(Nc2ccc(N(C)c3ccc(C45CC6CC(CC(C6)C4)C5)cc3)cc2)c(C(=O)O)c1 [Compound 250]		89	IC50 [2, 4]: 0.274 µM
CN(c1ccc(N(C)c2ncccc2C(=O)O)cc1)c1ccc(C23CC4CC(CC(C4)C2)C3)cc1Cl [Compound 109]		100	IC50 [2, 4]: 0.346 µM
O=C(O)c1ccccc1Nc1ccc(Nc2ccc(C34CC5CC(CC(C5)C3)C4)cc2Cl)cc1 [Compound 31]		99	% of inhibition of TEAD2 palmitoylation at 10 μM ([1]; Table 2): 84% and 82%; IC50 [2, 4]: 0.377 µM
CN(c1ccc(C23CC4CC(CC(C4)C2)C3)cc1)c1ccc(N(C)c2ncccc2C(=O)O)cc1C(F)(F)F [Compound 156]		92	
COC(=O)c1ccccc1Nc1cccc(Nc2ccc(C34CC5CC(CC(C5)C3)C4)cc2)c1 [Compound 1]		10	
O=C(O)c1ccccc1Nc1cnc(Oc2ccc(C3CCCCC3)cc2Cl)cn1 [compound 441]		79	
CN(c1ccc(C#Cc2ccc(C34CC5CC(CC(C5)C3)C4)cc2)cc1)c1ccccc1C(=O)O [Compound 191]		85	
O=C(O)c1ccccc1Nc1ccc(N(c2ccc(C34CC5CC(CC(C5)C3)C4)cc2)C(F)(F)F)cc1 [Compound 186]		76	

Compound	inhibition at 10 µM ([1]; Table 3) [%]	inhibition at 10 µM ([1]; Table 2) [%]	also measured
Cn1c(-c2cccc(Nc3ccc(C45CC6CC(CC(C6)C4)C5)cc3)c2)nc2cccc(C(=O)O)c21 [Compound 210]		100	
O=C(N[C@H]1CCC[C@H]1C(=O)O)c1ccc(Nc2ccc(C34CC5CC(CC(C5)C3)C4)cc2Cl)cc1 [Compound 77]		52	
COc1cc(Nc2ccc(Nc3ccc(C45CC6CC(CC(C6)C4)C5)cc3)cc2)c(C(=O)O)c(OC)c1 [Compound 249]		1	
O=C(O)c1ccccc1Nc1ccnc(Nc2ccc(C34CC5CC(CC(C5)C3)C4)cc2Cl)n1 [Compound 62]		65	
O=C(Nc1ccc(C23CC4CC(CC(C4)C2)C3)cc1)c1ccc(C(=O)Nc2ccccc2C(=O)O)cc1 [Compound 225]		84	
CCCCN(c1ccccc1)c1ccc(Nc2ccc(Nc3ncccc3C(=O)O)cc2)cc1 [Compound 255]		50	
CN(c1ccc(N2CCN(c3ccc(C45CC6CC(CC(C6)C4)C5)cc3)CC2)cc1)c1ccccc1C(=O)O [Compound 218]		0	
O=C(O)c1ccccc1Nc1ccc(Nc2ccc(C34CC5CC(CC(C5)C3)C4)cc2)cc1 [Compound 24, 2-((4-((4-((3R,5R)-adamantan-1-yl)phenyl)amino)phenyl)amino)benzoic acid]		56	
CCCCN(c1ccccc1)c1ccc(N(C)c2ccc(N(C)c3ccccc3C(=O)O)cc2)cc1 [Compound 187]		57	
O=C(CNc1ccc(Nc2ncccc2C(=O)O)cc1)Nc1ccc(C23CC4CC(CC(C4)C2)C3)cc1 [Compound 181]		49	% of inhibition of TEAD2 palmitoylation at 10 μM ([1]; Table 2): 41%
O=C(O)c1cccc(NC(=O)c2ccc(Nc3ccc(C45CC6CC(CC(C6)C4)C5)cc3)cc2)c1 [Compound 198]		99	
CC12CC3CC(C)(C1)CC(c1ccc(NC(=O)c4ccc(Nc5ccccc5C(=O)O)cc4)cc1)(C3)C2 [Compound 216]		89	
N#Cc1cc(Nc2ccc(C34CC5CC(CC(C5)C3)C4)cc2)ccc1Nc1ccccc1C(=O)O			inhibition at 10 µM [1]: 80%
CCCCN(c1ccccc1)c1ccc(NC(=O)c2cccc(Nc3ncccc3C(=O)O)c2)cc1 [Compound 266]		81	
N#Cc1ccccc1Nc1ccc(Nc2ccc(C34CC5CC(CC(C5)C3)C4)cc2Cl)cc1 [Compound 7]		30	
CC(C)c1ccccc1-c1ccc(NC(=O)c2cccc(Nc3ccccc3C(=O)O)c2)cc1 [Compound 224]		81	
O=C(Nc1ccc(C23CC4CC(CC(C4)C2)C3)cc1)c1cccnc1Nc1cccc(C(F)(F)F)c1			inhibition at 10 µM [1]: 50%
COc1cccc2c1S(=O)(=O)N=C2Nc1ccc(C23CC4CC(CC(C4)C2)C3)cc1 [Compound 19]		35	
